Assay [1] concerns monocytes. The following applies: cited from earlier work.
Assay [2] deals with CD3+ T cells. To be noted: cited from earlier work.
Assay [3] deals with monocyte-derived DCs (moDCs). Type of assay: cell-based, human. The following applies: rCD40L 5 µg/mL, 72 h.

RSKAKNPLYR linked to R8 [IK14800]: in assay [1], the “Differentiation of monocytes to CD14neg cells” value is on record as “does not promote differentiation of monocytes to CD14^neg cells”. The “Induction of IL-12p70 in isolated CD3+ T cells in absence of DC engagement” value in assay [2] is “contributes to induction of IL-12p70”.

Turning to “rCD40L: recombinant CD40 ligand (BioLegend), used at 5 µg/mL”, in assay [3] (after 7 days GM-CSF/IL-4, Fig. 1a), the “Differentiation of cells within moDC cultures to CD14neg DC phenotype” value is given as “near-total differentiation of cells to the CD14^neg DC phenotype”. In assay [3] (Fig. 1b), the “Proliferative capacity of moDCs (Ki67 expression)” value was “not associated with a significant change in the proliferative capacity”.

The values are drawn from paper PMC11538426 (Scientific Reports, 2024).
